Data from patent US6057119A, “Crystal structure and mutants of interleukin-1β converting enzyme” (Vertex Pharmaceuticals, Incorporated, priority 1995, dated 2000).

Target: T1, human interleukin-1β converting enzyme (ICE), wild type, autoprocessed p20/p10 from p30 precursor (residues Asn 120 to His 404 of p45), SEQ ID No: 1 (Homo sapiens, UniProt P29466)
T1 construct: the concomitant appearance of the p20 and p10 subunits, was monitored by SDS-PAGE, evidence that autocatalytic processing of the enzyme had occurred; made in house
T1 sequence (P29466 120-297): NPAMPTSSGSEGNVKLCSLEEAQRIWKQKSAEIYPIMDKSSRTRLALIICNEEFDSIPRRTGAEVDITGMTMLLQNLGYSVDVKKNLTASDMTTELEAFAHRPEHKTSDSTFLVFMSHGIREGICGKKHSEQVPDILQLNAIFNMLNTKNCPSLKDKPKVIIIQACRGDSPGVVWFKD
T1 sequence (P29466 317-404): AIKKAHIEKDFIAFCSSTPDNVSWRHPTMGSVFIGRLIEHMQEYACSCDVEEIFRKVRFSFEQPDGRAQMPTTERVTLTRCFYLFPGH
Assay: Inhibition of autoprocessed ICE by tetrapeptide aldehyde inhibitor (activity assayed by hydrolysis of Succinyl-Tyr-Val-Ala-Asp-p-nitroanilide)
Assay type: biochemical
Settings: 2× molar excess of inhibitor over enzyme
Method: The protein was concentrated to 3-5 mg/ml by ultrafiltration at 4° C., followed by incubation at room temperature. The disappearance of the p30 precursor, and the concomitant appearance of the p20 and p10 subunits, was monitored by SDS-PAGE, evidence that autocatalytic processing of the enzyme had occurred. ICE enzymatic activity was assayed by hydrolysis of a Succinyl-Tyr-Val-Ala-Asp-p-nitroanilide substrate at 37° C. and correlated closely with conversion to subunits.
The protein-inhibitor complex sample was concentrated and fractionated by size-exclusion chromatography, in final preparation for crystallization experiments.

inhibition of autoprocessed ICE: inhibited fully
SMILES: CC(=O)N[C@@H](Cc1ccc(O)cc1)C(=O)N[C@H](C(=O)N[C@@H](C)C(=O)N[C@H](C=O)CC(=O)O)C(C)C [acetyl-Tyr-Vol-Ala-Asp-H]
